Assay results as given in patent publication US5268281A, “Cyclic FR-900520 microbial biotransformation agent” (Merck & Co., Inc., priority 1992, dated 1993).
Entries after “also recorded” stand apart in the source; their conditions may differ.

What was measured:
[1] = test system: mouse T lymphocytes (Splenic T-cells); assay: T-Cell Proliferation Assay: inhibition of tritiated thymidine uptake in splenic T-cells stimulated with ionomycin + PMA; type: cell-based, mouse (C57Bl/6)
Experimental: The principle of this assay is to measure the proliferation of mouse T lymphocytes stimulated with the combination of ionomycin plus PMA.
Cells were pelleted by centrifugation at 1500 rpm for 8 minutes. Contaminating red cells were removed by treating the pellet with ammonium chloride lysing buffer (GIBCO) for 2 minutes at 4° C. Cold medium was added and cells were again centrifuged at 1500 rpm for 8 minutes. T lymphocytes were then isolated by separation of the cell suspension on nylon wool columns as follows: Nylon wool columns were prepared by packing approximately 4 grams of washed and dried nylon wool into 20 ml plastic syringes. The columns were sterilized by autoclaving at 250° F. for 30 minutes. Nylon wool columns were wetted with warm (37° C.) culture medium and rinsed with the same medium. Washed spleen cells resuspended in warm medium were slowly applied to the nylon wool. The columns were then incubated in an upright position at 37° C. for 1 hour. Non-adherent T lymphocytes were eluted from the columns with warm culture medium and the cell suspensions were spun as above.
The cell suspension was immediately distributed into 96 well flat-bottom microculture plates (Costar) at 200 μl/well. […] The proliferation of T lymphocytes was assessed by measurement of tritiated thymidine incorporation. After 44 hours of culturing, the cells were pulse-labelled with 2 μCi/well of tritiated thymidine (NEN, Cambridge, Mass.). After another 4 hours of incubation, cultures were harvested on glass fiber filters using a multiple sample harvester. Radioactivity of filter discs corresponding to individual wells was measured by standard liquid scintillation counting methods (Betacounter). Mean counts per minute of replicate wells were calculated and the results expressed as percent inhibition of tritiated thymidine uptake (proliferation) as follows: [formula]

[2] = Solubility (physical characteristics); type: physicochemical; settings: in methanol
[3] = EPO Publication No. 0184162; cited from earlier work

SMILES | reversal of inhibition of T-cell proliferation by addition of IL2 ([1]; 50 units/ml recombinant IL2 at the initiation of culture) | FK-506 immunosuppressant activity / immunosuppressive activity in T-cell proliferation assay ([1]; ionomycin plus PMA, result in words) | Solubility [2] | inhibition at 0.01 µg/mL ([1]; Mus musculus, T-cell, 48 h, read-out: inhibition (Standard)) [%] | effectiveness relative to cyclosporin (reputed) [3] [times]
CC[C@@H]1C=C2COC1(O)C[C@H](O)[C@@H](C)[C@@H](/C(C)=C/[C@@H]1CC[C@@H](O)[C@H](OC)C1)OC(=O)[C@@H]1CCCCN1C(=O)C(=O)[C@]1(O)O[C@H]([C@@H](OC)C[C@@H](C)C2)[C@@H](OC)C[C@H]1C [Compound I] | reversed | positive inhibition of T-cell activation; also recorded: positive immunosuppressive activity | Solubility in methanol |  | 
C=CC[C@@H]1/C=C(\C)C[C@H](C)C[C@H](OC)[C@H]2O[C@@](O)(C(=O)C(=O)N3CCCC[C@H]3C(=O)O[C@H](/C(C)=C/[C@@H]3CC[C@@H](O)[C@H](OC)C3)[C@H](C)[C@@H](O)CC1=O)[C@H](C)C[C@@H]2OC [FR900506, reference compound] |  |  |  | 99 | 100
